From the CheMixHub viscosity set
Where “and” joins values, the source holds several entries; their conditions need not be identical. Equal entries are not always repeated.

Test: xn = mol fraction of the nth substance listed

COCCO + O
viscosity
Conditions | 101 kPa | 101.33 kPa
298.15 K, x1 = 0.01 | 0.9988 mPa·s | –
298.15 K, x1 = 0.025 | 1.169 mPa·s | –
298.15 K, x1 = 0.05 | 1.464 mPa·s | –
298.15 K, x1 = 0.056 | 1.516 mPa·s | –
298.15 K, x1 = 0.075 | 1.755 mPa·s | –
298.15 K, x1 = 0.0834 | – | 1.894 mPa·s
298.15 K, x1 = 0.1 | 2.023 mPa·s | –
298.15 K, x1 = 0.136 | 2.365 mPa·s | –
298.15 K, x1 = 0.1366 | – | 2.365 mPa·s
298.15 K, x1 = 0.15 | 2.475 mPa·s | 2.442 mPa·s
298.15 K, x1 = 0.2 | 2.766 mPa·s | –
298.15 K, x1 = 0.2131 | – | 2.768 mPa·s
298.15 K, x1 = 0.25 | 2.908 mPa·s and 2.871 mPa·s and 2.871 mPa·s | –
298.15 K, x1 = 0.2601 | – | 2.876 mPa·s
298.15 K, x1 = 0.262 | 2.885 mPa·s | –
298.15 K, x1 = 0.3 | 2.942 mPa·s | –
298.15 K, x1 = 0.3005 | – | 2.904 mPa·s
298.15 K, x1 = 0.3558 | – | 2.886 mPa·s
298.15 K, x1 = 0.4 | 2.833 mPa·s | –
298.15 K, x1 = 0.4352 | – | 2.751 mPa·s
298.15 K, x1 = 0.48 | 2.582 mPa·s and 2.582 mPa·s | –
298.15 K, x1 = 0.486 | 2.575 mPa·s | –
298.15 K, x1 = 0.5 | 2.606 mPa·s | –
298.15 K, x1 = 0.5001 | – | 2.616 mPa·s
298.15 K, x1 = 0.5219 | – | 2.571 mPa·s
298.15 K, x1 = 0.6 | 2.35 mPa·s | –
298.15 K, x1 = 0.6161 | – | 2.367 mPa·s
298.15 K, x1 = 0.6806 | – | 2.232 mPa·s
298.15 K, x1 = 0.7 | 2.102 mPa·s | –
298.15 K, x1 = 0.72 | 2.115 mPa·s and 2.115 mPa·s | –
298.15 K, x1 = 0.7514 | – | 2.076 mPa·s
298.15 K, x1 = 0.8 | 1.874 mPa·s | –
298.15 K, x1 = 0.8181 | – | 1.93 mPa·s
298.15 K, x1 = 0.85 | 1.772 mPa·s | –
298.15 K, x1 = 0.8844 | – | 1.786 mPa·s
298.15 K, x1 = 0.9 | 1.681 mPa·s | –
298.15 K, x1 = 0.95 | 1.606 mPa·s | –
298.15 K, x2 = 0.1049 | – | 1.671 mPa·s
298.15 K, x2 = 0.2062 | – | 1.86 mPa·s
298.15 K, x2 = 0.3055 | – | 2.064 mPa·s
298.15 K, x2 = 0.3977 | – | 2.288 mPa·s
298.15 K, x2 = 0.4976 | – | 2.538 mPa·s
298.15 K, x2 = 0.6002 | – | 2.755 mPa·s
298.15 K, x2 = 0.6964 | – | 2.866 mPa·s
298.15 K, x2 = 0.8004 | – | 2.68 mPa·s
298.15 K, x2 = 0.9005 | – | 1.989 mPa·s
308.15 K, x1 = 0.0461 | – | 1.143 mPa·s
308.15 K, x1 = 0.0623 | – | 1.242 mPa·s
308.15 K, x1 = 0.0881 | – | 1.52 mPa·s
308.15 K, x1 = 0.1239 | – | 1.829 mPa·s
308.15 K, x1 = 0.16 | – | 1.803 mPa·s
308.15 K, x1 = 0.1871 | – | 2.124 mPa·s
308.15 K, x1 = 0.2131 | – | 2.067 mPa·s
308.15 K, x1 = 0.2442 | – | 2.284 mPa·s
308.15 K, x1 = 0.25 | 2.142 mPa·s and 2.142 mPa·s | –
308.15 K, x1 = 0.2601 | – | 2.149 mPa·s
308.15 K, x1 = 0.2938 | – | 2.341 mPa·s
308.15 K, x1 = 0.3005 | – | 2.164 mPa·s
308.15 K, x1 = 0.326 | – | 2.342 mPa·s
308.15 K, x1 = 0.3558 | – | 2.15 mPa·s
308.15 K, x1 = 0.3709 | – | 2.319 mPa·s
308.15 K, x1 = 0.4014 | – | 2.284 mPa·s
308.15 K, x1 = 0.4352 | – | 2.077 mPa·s
308.15 K, x1 = 0.4504 | – | 2.217 mPa·s
308.15 K, x1 = 0.5001 | – | 2.001 mPa·s
308.15 K, x1 = 0.5219 | – | 1.96 mPa·s
308.15 K, x1 = 0.6161 | – | 1.818 mPa·s
308.15 K, x1 = 0.6806 | – | 1.726 mPa·s
308.15 K, x1 = 0.72 | 1.68 mPa·s and 1.68 mPa·s | –
308.15 K, x1 = 0.7514 | – | 1.624 mPa·s
308.15 K, x1 = 0.8844 | – | 1.443 mPa·s
308.15 K, x2 = 0.1034 | – | 1.452 mPa·s
308.15 K, x2 = 0.1923 | – | 1.477 mPa·s
308.15 K, x2 = 0.2978 | – | 1.629 mPa·s
308.15 K, x2 = 0.3944 | – | 1.768 mPa·s
308.15 K, x2 = 0.5527 | – | 1.918 mPa·s
308.15 K, x2 = 0.7415 | – | 2.002 mPa·s
308.15 K, x2 = 0.8372 | – | 1.768 mPa·s
308.15 K, x2 = 0.956 | – | 1.085 mPa·s
313.15 K, x1 = 0.25 | 1.842 mPa·s and 1.842 mPa·s | –
313.15 K, x1 = 0.48 | 1.805 mPa·s and 1.805 mPa·s | –
313.15 K, x1 = 0.72 | 1.517 mPa·s and 1.517 mPa·s | –
318.15 K, x1 = 0.0251 | – | 0.737 mPa·s
318.15 K, x1 = 0.0623 | – | 0.95 mPa·s
318.15 K, x1 = 0.15 | – | 1.325 mPa·s
318.15 K, x1 = 0.2131 | – | 1.505 mPa·s
318.15 K, x1 = 0.25 | 1.588 mPa·s and 1.588 mPa·s | –
318.15 K, x1 = 0.2601 | – | 1.585 mPa·s
318.15 K, x1 = 0.3005 | – | 1.626 mPa·s
318.15 K, x1 = 0.3558 | – | 1.655 mPa·s
318.15 K, x1 = 0.4352 | – | 1.653 mPa·s
318.15 K, x1 = 0.48 | 1.627 mPa·s and 1.627 mPa·s | –
318.15 K, x1 = 0.5001 | – | 1.615 mPa·s
318.15 K, x1 = 0.5219 | – | 1.602 mPa·s
318.15 K, x1 = 0.6161 | – | 1.513 mPa·s
318.15 K, x1 = 0.6806 | – | 1.444 mPa·s
318.15 K, x1 = 0.72 | 1.389 mPa·s and 1.389 mPa·s | –
318.15 K, x1 = 0.7514 | – | 1.36 mPa·s
318.15 K, x1 = 0.8181 | – | 1.281 mPa·s
318.15 K, x1 = 0.8844 | – | 1.191 mPa·s
323.15 K, x1 = 0.48 | 1.493 mPa·s and 1.493 mPa·s | –
323.15 K, x1 = 0.72 | 1.294 mPa·s and 1.294 mPa·s | –

CCCCNCCCC + CC(C)(C)O
viscosity [mPa·s]
Conditions | 298.15 K | 303.15 K | 308.15 K | 313.15 K | 318.15 K | 323.15 K
101 kPa, x2 = 0.1 | – | 0.8289 | 0.7649 | 0.7079 | 0.658 | 0.6131
101 kPa, x2 = 0.2 | – | 0.8953 | 0.8203 | 0.7551 | 0.6972 | 0.6454
101 kPa, x2 = 0.3 | – | 0.976 | 0.8884 | 0.8111 | 0.7456 | 0.6862
101 kPa, x2 = 0.4 | – | 1.082 | 0.9747 | 0.8862 | 0.8031 | 0.7331
101 kPa, x2 = 0.4999 | – | 1.217 | 1.085 | 0.9769 | 0.8802 | 0.7968
101 kPa, x2 = 0.55 | – | 1.302 | 1.153 | 1.027 | 0.92 | 0.829
101 kPa, x2 = 0.6001 | – | 1.391 | 1.228 | 1.087 | 0.9714 | 0.8676
101 kPa, x2 = 0.65 | – | 1.513 | 1.32 | 1.16 | 1.027 | 0.9126
101 kPa, x2 = 0.7 | – | 1.647 | 1.423 | 1.24 | 1.089 | 0.9614
101 kPa, x2 = 0.8001 | – | 2.011 | 1.696 | 1.441 | 1.245 | 1.08
101 kPa, x2 = 0.9 | – | 2.559 | 2.087 | 1.71 | 1.45 | 1.232
101 kPa, x2 = 0.95 | – | 2.937 | 2.352 | 1.91 | 1.583 | 1.333
101.33 kPa, x1 = 0.0672 | 3.548 | – | 2.271 | – | 1.565 | –
101.33 kPa, x1 = 0.0989 | 3.272 | – | 2.133 | – | 1.497 | –
101.33 kPa, x1 = 0.1393 | 2.953 | – | 1.97 | – | 1.409 | –
101.33 kPa, x1 = 0.1939 | 2.586 | – | 1.782 | – | 1.303 | –
101.33 kPa, x1 = 0.2674 | 2.165 | – | 1.559 | – | 1.172 | –
101.33 kPa, x1 = 0.3319 | 1.893 | – | 1.402 | – | 1.077 | –
101.33 kPa, x1 = 0.405 | 1.643 | – | 1.25 | – | 0.984 | –
101.33 kPa, x1 = 0.4915 | 1.419 | – | 1.109 | – | 0.895 | –
101.33 kPa, x1 = 0.5791 | 1.248 | – | 0.999 | – | 0.816 | –
101.33 kPa, x1 = 0.6466 | 1.143 | – | 0.93 | – | 0.769 | –
101.33 kPa, x1 = 0.6907 | 1.086 | – | 0.89 | – | 0.745 | –
101.33 kPa, x1 = 0.776 | 0.994 | – | 0.825 | – | 0.7 | –
101.33 kPa, x1 = 0.8387 | 0.932 | – | 0.783 | – | 0.671 | –
101.33 kPa, x1 = 0.8867 | 0.889 | – | 0.752 | – | 0.654 | –
101.33 kPa, x1 = 0.9129 | 0.872 | – | 0.742 | – | 0.642 | –
101.33 kPa, x1 = 0.9471 | 0.845 | – | 0.724 | – | 0.629 | –
